This note sets out measurements from US20240109917A1 (ACTELION PHARMACEUTICALS LTD, priority 2020, published 2024).

The structures appear in SMILES notation. Read-outs that look alike come from different tables or passages of the source.

One assay has as its target PDGFRβ (Rattus norvegicus (Rat), UniProt Q05030). The assay is described as follows: PDGFRβ Cellular Assay (PDGFRb P-Y751 HTRF in A10 cells stimulated with PDGF-BB). Type of assay: cell-based. Summed up: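 Rat A10 cells, plated overnight, were treated with compound for 3 hours, then stimulated with PDGF-BB (working stock 100 ng/mL in 10% FBS medium). After lysis, PDGFRβ P-Y751 was detected by HTRF.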
A general note: Time-resolved FRET reads energy transfer from a long-lived donor to a nearby acceptor.

In assay [1] the target is His6-TEV-PDGFRβ (557-1016) (Homo sapiens (Human), UniProt P09619). Briefly: PDGFRβ HTRF Assay. Type of assay: biochemical. Conditions: read-out: PDGFR HTRF IC50. Summed up: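 Human PDGFRβ (557-1016) pre-incubated with compound for 30 min at RT in pH 7.5 HEPES/MgCl2/EGTA/Brij-35/DTT buffer. Reaction started with ATP and TK-biotin peptide, run 3 h at RT, then quenched with EDTA-containing Eu-cryptate antibody/streptavidin-XL665. HTRF 665/620 nm ratio read after 60 min; percent inhibition relative to DMSO and 10 μM imatinib controls.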
Chain of His6-TEV-PDGFRβ (557-1016) (P09619 557-1016): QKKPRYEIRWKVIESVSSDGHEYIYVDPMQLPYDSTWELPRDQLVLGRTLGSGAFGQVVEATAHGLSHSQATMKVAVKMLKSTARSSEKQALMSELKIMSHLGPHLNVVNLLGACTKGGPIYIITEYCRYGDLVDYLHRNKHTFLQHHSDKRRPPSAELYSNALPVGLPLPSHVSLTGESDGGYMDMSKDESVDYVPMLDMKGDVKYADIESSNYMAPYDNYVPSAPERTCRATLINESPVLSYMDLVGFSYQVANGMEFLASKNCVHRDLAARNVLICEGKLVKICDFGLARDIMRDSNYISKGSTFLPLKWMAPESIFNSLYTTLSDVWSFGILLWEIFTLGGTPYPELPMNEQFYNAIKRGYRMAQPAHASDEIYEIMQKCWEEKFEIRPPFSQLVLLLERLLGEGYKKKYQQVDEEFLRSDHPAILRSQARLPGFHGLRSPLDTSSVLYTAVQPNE

Chain of PDGFRβ (Q05030 32-1097): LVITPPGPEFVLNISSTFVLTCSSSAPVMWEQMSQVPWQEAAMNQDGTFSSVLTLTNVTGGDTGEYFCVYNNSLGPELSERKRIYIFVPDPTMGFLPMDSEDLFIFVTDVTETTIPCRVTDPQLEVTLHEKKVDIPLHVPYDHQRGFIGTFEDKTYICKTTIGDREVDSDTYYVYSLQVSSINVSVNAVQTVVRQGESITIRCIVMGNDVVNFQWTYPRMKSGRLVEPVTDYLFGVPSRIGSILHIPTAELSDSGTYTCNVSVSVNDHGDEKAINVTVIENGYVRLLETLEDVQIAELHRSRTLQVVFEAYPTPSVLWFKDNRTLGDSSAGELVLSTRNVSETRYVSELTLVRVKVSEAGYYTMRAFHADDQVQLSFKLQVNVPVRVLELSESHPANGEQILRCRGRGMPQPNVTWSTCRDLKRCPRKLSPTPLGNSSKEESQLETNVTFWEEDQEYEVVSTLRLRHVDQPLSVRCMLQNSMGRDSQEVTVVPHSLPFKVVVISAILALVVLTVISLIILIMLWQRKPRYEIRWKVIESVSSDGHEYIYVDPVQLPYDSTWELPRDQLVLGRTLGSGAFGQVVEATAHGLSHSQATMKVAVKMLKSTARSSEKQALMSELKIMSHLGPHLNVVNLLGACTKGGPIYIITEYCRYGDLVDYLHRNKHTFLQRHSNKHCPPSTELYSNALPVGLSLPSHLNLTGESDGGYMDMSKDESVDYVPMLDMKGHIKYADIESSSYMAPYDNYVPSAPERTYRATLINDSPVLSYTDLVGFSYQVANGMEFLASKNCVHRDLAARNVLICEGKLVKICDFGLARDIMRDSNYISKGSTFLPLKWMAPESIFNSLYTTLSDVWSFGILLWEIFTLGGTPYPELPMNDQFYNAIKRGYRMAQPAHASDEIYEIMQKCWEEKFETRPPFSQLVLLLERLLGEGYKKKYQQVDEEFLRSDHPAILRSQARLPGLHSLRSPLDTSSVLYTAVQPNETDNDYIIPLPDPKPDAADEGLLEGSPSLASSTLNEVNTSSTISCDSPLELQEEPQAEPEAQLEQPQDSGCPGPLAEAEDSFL

On to `COc1ncccc1-c1cn2ncc(C(=O)Nc3cc(NC(=O)CN4CCC5(CC5)C4)cnc3C)c2s1` [Example 324, N-(5-(2-(5-azaspiro[2.4]heptan-5-yl)acetamido)-2-methylpyridin-3-yl)-2-(2-methoxypyridin-3-yl)pyrazolo[5,1-b]thiazole-7-carboxamide], for which the IC50 (commonly the concentration needed to halve the response being measured) was 1.1 nM at PDGFRβ (read-out: PDGFR Cellular IC50) and 0.1 nM in assay [1].
In the same order, the values of `Cc1ncc(NC(=O)CN2CC(C)(C)C2)cc1NC(=O)c1cnn2cc(-c3cn[nH]c3)sc12` [Example 271, N-(5-(2-(3,3-dimethylazetidin-1-yl)acetamido)-2-methylpyridin-3-yl)-2-(1H-pyrazol-4-yl)pyrazolo[5,1-b]thiazole-7-carboxamide] are 10.3 nM and 0.2 nM.
The corresponding values for `Cc1ncc(NC(=O)CN2CC(C)(C)C2)cc1NC(=O)c1cnn2cc(-c3ccc(CO)o3)sc12` [Example 292, N-(5-(2-(3,3-dimethylazetidin-1-yl)acetamido)-2-methylpyridin-3-yl)-2-(5-(hydroxymethyl)furan-2-yl)pyrazolo[5,1-b]thiazole-7-carboxamide] are 4.2 nM and 0.3 nM.
For the compound `Cc1ncc(NC(=O)CN(C)C2CCOCC2)cc1NC(=O)c1cnn2cc(-c3cnn(C4CCC4)c3)sc12` [Example 296, 2-(1-cyclobutyl-1H-pyrazol-4-yl)-N-(2-methyl-5-(2-(methyl(tetrahydro-2H-pyran-4-yl)amino)acetamido)pyridin-3-yl)pyrazolo[5,1-b]thiazole-7-carboxamide], the values for the IC50 (at PDGFRβ (read-out: PDGFR Cellular IC50); in assay [1]) were 7.6 nM and 0.3 nM, respectively.
With `Cc1ncc(NC(=O)[C@@H]2C[C@H](C)CN2C)cc1NC(=O)c1cnn2cc(-c3cccnc3O)sc12` [Example 316, N-(5-((2S,4S)-1,4-dimethylpyrrolidine-2-carboxamido)-2-methylpyridin-3-yl)-2-(2-hydroxypyridin-3-yl)pyrazolo[5,1-b]thiazole-7-carboxamide], the IC50 on PDGFRβ (read-out: PDGFR Cellular IC50) was determined as 58.3 nM; in assay [1] it was 1.9 nM.
The corresponding values for `Cc1ncc(NC(=O)CN2CCCCC23COC3)cc1NC(=O)c1cnn2cc(-c3cnn(C)c3)sc12` [Example 25, N-(5-(2-(2-oxa-5-azaspiro[3.5]nonan-5-yl)acetamido)-2-methylpyridin-3-yl)-2-(1-methyl-1H-pyrazol-4-yl)pyrazolo[5,1-b]thiazole-7-carboxamide] are 27.7 nM and 0.7 nM.
The corresponding values for `Cc1ncc(NC(=O)CN2CC(C)(C)C2)cc1NC(=O)c1cnn2cc(-c3cnn(C4CCS(=O)(=O)CC4)c3)sc12` [Example 280, N-(5-(2-(3,3-dimethylazetidin-1-yl)acetamido)-2-methylpyridin-3-yl)-2-(1-(1,1-dioxidotetrahydro-2H-thiopyran-4-yl)-1H-pyrazol-4-yl)pyrazolo[5,1-b]thiazole-7-carboxamide] are 85.9 nM and 0.3 nM.
On to `Cc1ncc(NC(=O)CN(C)C2CCOCC2)cc1NC(=O)c1cnn2cc(-c3cnn(CS(C)(=O)=O)c3)sc12` [Example 298, N-(2-methyl-5-(2-(methyl(tetrahydro-2H-pyran-4-yl)amino)acetamido)pyridin-3-yl)-2-(1-((methylsulfonyl)methyl)-1H-pyrazol-4-yl)pyrazolo[5,1-b]thiazole-7-carboxamide], for which the IC50 amounted to 236 nM against PDGFRβ (PDGFR Cellular IC50) and 0.9 nM in assay [1].
For the compound `Cc1ncc(NC(=O)[C@@H]2C[C@@H](C)CN2C)cc1NC(=O)c1cnn2cc(-c3cnn(C)c3)sc12` [Example 304, N-(5-((2S,4R)-1,4-dimethylpyrrolidine-2-carboxamido)-2-methylpyridin-3-yl)-2-(1-methyl-1H-pyrazol-4-yl)pyrazolo[5,1-b]thiazole-7-carboxamide], the figures for the IC50 (on PDGFRβ (read-out: PDGFR Cellular IC50); in assay [1]) were 9.3 nM and 0.6 nM, respectively.
In the same order, the values of `Cc1ncc(NC(=O)OC[C@@H]2CCCN2C)cc1NC(=O)c1cnn2cc(-c3cccc4c3cnn4C)sc12` [Example 257, (S)-(1-methylpyrrolidin-2-yl)methyl (6-methyl-5-(2-(1-methyl-1H-indazol-4-yl)pyrazolo[5,1-b]thiazole-7-carboxamido)pyridin-3-yl)carbamate] are 13.1 nM and 0.2 nM.
In the same order, the values of `COCCn1cc(-c2cn3ncc(C(=O)Nc4cc(NC(=O)CN5CCC[C@H]5C)cnc4C)c3s2)cn1` [Example 330, (R)-2-(1-(2-methoxyethyl)-1H-pyrazol-4-yl)-N-(2-methyl-5-(2-(2-methylpyrrolidin-1-yl)acetamido)pyridin-3-yl)pyrazolo[5,1-b]thiazole-7-carboxamide] are 6.8 nM and 0.6 nM.
The corresponding values for `Cc1ncc(NC(=O)CN(C)C2CCOCC2)cc1NC(=O)c1cnn2cc(-c3cnn(CC#N)c3)sc12` [Example 299, 2-(1-(cyanomethyl)-1H-pyrazol-4-yl)-N-(2-methyl-5-(2-(methyl(tetrahydro-2H-pyran-4-yl)amino)acetamido)pyridin-3-yl)pyrazolo[5,1-b]thiazole-7-carboxamide] are 102 nM and 0.5 nM.
Regarding `Cc1ncc(NC(=O)CN2CC(C)(C)C2)cc1NC(=O)c1cnn2cc(-c3ccoc3)sc12` [Example 283, N-(5-(2-(3,3-dimethylazetidin-1-yl)acetamido)-2-methylpyridin-3-yl)-2-(furan-3-yl)pyrazolo[5,1-b]thiazole-7-carboxamide], the figures for the IC50 (at PDGFRβ (read-out: PDGFR Cellular IC50); in assay [1]) were 1.5 nM and 0.1 nM, respectively.
The corresponding values for `COc1ncccc1-c1cn2ncc(C(=O)Nc3cc(NC(=O)OCCN4CCCC4(C)C)cnc3C)c2s1` [Example 254, 2-(2,2-dimethylpyrrolidin-1-yl)ethyl (5-(2-(2-methoxypyridin-3-yl)pyrazolo[5,1-b]thiazole-7-carboxamido)-6-methylpyridin-3-yl)carbamate] are 6.2 nM and 0.2 nM.
In the same order, the values of `Cc1ncc(NC(=O)CC(C)N2CCCCC2)cc1NC(=O)c1cnn2cc(-c3cnn(C)c3)sc12` (stereo not drawn) [Example 307, 2-(1-methyl-1H-pyrazol-4-yl)-N-(2-methyl-5-(3-(piperidin-1-yl)butanamido)pyridin-3-yl)pyrazolo[5,1-b]thiazole-7-carboxamide] are 73.2 nM and 9.7 nM.
The corresponding values for `COc1ncccc1-c1cn2ncc(C(=O)Nc3cc(NC(=O)[C@@H]4C[C@H](C)CN4C)cnc3C)c2s1` [Example 317, N-(5-((2S,4S)-1,4-dimethylpyrrolidine-2-carboxamido)-2-methylpyridin-3-yl)-2-(2-methoxypyridin-3-yl)pyrazolo[5,1-b]thiazole-7-carboxamide] are 6.5 nM and 0.3 nM.
Turning to `Cc1ncc(NC(=O)CN2CCCC(O)C2)cc1NC(=O)c1cnn2cc(-c3cnn(C)c3)sc12` (stereo not drawn) [Example 303, N-(5-(2-(3-hydroxypiperidin-1-yl)acetamido)-2-methylpyridin-3-yl)-2-(1-methyl-1H-pyrazol-4-yl)pyrazolo[5,1-b]thiazole-7-carboxamide], the IC50 came to 121 nM on PDGFRβ (read-out: PDGFR Cellular IC50) and 0.4 nM in assay [1].
Take `Cc1ncc(NC(=O)CN2CCCC2)cc1NC(=O)c1cnn2cc(-c3cccnc3O)sc12` [Example 312, 2-(2-hydroxypyridin-3-yl)-N-(2-methyl-5-(2-(pyrrolidin-1-yl)acetamido)pyridin-3-yl)pyrazolo[5,1-b]thiazole-7-carboxamide]: the IC50 was determined as 948 nM at PDGFRβ (read-out: PDGFR Cellular IC50) and 1.8 nM in assay [1].
In the same order, the values of `Cc1ncc(NC(=O)CN2CC(C)(C)C2)cc1NC(=O)c1cnn2cc(-c3cnn(CCO)c3)sc12` [Example 290, N-(5-(2-(3,3-dimethylazetidin-1-yl)acetamido)-2-methylpyridin-3-yl)-2-(1-(2-hydroxyethyl)-1H-pyrazol-4-yl)pyrazolo[5,1-b]thiazole-7-carboxamide] are 19.5 nM and 0.4 nM.
In the same order, the values of `Cc1ncc(NC(=O)CN2CC(C)(C)C2)cc1NC(=O)c1cnn2cc(-c3ccsc3)sc12` [Example 282, N-(5-(2-(3,3-dimethylazetidin-1-yl)acetamido)-2-methylpyridin-3-yl)-2-(thiophen-3-yl)pyrazolo[5,1-b]thiazole-7-carboxamide] are 0.9 nM and 0.1 nM.
The corresponding values for `Cc1ncc(NC(=O)C2CCCCN2C(C)C)cc1NC(=O)c1cnn2cc(-c3cccnc3O)sc12` (stereo not drawn) [Example 314, 2-(2-hydroxypyridin-3-yl)-N-(5-(1-isopropylpiperidine-2-carboxamido)-2-methylpyridin-3-yl)pyrazolo[5,1-b]thiazole-7-carboxamide] are 548 nM and 2.5 nM.
Regarding `Cc1ncc(NC(=O)CN2CC(C)(C)C2)cc1NC(=O)c1cnn2cc(-c3cccc4c3cnn4C)sc12` [Example 286, N-(5-(2-(3,3-dimethylazetidin-1-yl)acetamido)-2-methylpyridin-3-yl)-2-(1-methyl-1H-indazol-4-yl)pyrazolo[5,1-b]thiazole-7-carboxamide], the IC50 on PDGFRβ (read-out: PDGFR Cellular IC50) is 1.4 nM; in assay [1], 0.1 nM.
In the same order, the values of `Cc1ncc(NC(=O)CN(C)C2CCOCC2)cc1NC(=O)c1cnn2cc(-c3cnn(C4CC4)c3)sc12` [Example 294, 2-(1-cyclopropyl-1H-pyrazol-4-yl)-N-(2-methyl-5-(2-(methyl(tetrahydro-2H-pyran-4-yl)amino)acetamido)pyridin-3-yl)pyrazolo[5,1-b]thiazole-7-carboxamide] are 12.7 nM and 0.3 nM.
As for `Cc1ncc(NC(=O)C[C@@H]2CCCN2C(C)C)cc1NC(=O)c1cnn2cc(-c3cccnc3O)sc12` [Example 322, (S)-2-(2-hydroxypyridin-3-yl)-N-(5-(2-(1-isopropylpyrrolidin-2-yl)acetamido)-2-methylpyridin-3-yl)pyrazolo[5,1-b]thiazole-7-carboxamide], the concentration for half-maximal inhibition (IC50) at PDGFRβ (read-out: PDGFR Cellular IC50) worked out at 122 nM; in assay [1] it was 0.7 nM.
